We go through 5 compounds from article PMC5761851, “Application of a phenotypic drug discovery strategy to identify biological and chemical starting points for inhibition of TSLP production in lung epithelial cells” (PLoS ONE, 2018).

Experiment in all cases: kinase selectivity panel
Holding throughout (assay type): biochemical

Experiment [1] addresses T1, PKCι (Homo sapiens, UniProt P41743).
T1 construct: purchased Eurofins Pharma Discovery Services (KinaseProfiler; Cerep BioPrint panel)
T1 sequence (P41743 1-596): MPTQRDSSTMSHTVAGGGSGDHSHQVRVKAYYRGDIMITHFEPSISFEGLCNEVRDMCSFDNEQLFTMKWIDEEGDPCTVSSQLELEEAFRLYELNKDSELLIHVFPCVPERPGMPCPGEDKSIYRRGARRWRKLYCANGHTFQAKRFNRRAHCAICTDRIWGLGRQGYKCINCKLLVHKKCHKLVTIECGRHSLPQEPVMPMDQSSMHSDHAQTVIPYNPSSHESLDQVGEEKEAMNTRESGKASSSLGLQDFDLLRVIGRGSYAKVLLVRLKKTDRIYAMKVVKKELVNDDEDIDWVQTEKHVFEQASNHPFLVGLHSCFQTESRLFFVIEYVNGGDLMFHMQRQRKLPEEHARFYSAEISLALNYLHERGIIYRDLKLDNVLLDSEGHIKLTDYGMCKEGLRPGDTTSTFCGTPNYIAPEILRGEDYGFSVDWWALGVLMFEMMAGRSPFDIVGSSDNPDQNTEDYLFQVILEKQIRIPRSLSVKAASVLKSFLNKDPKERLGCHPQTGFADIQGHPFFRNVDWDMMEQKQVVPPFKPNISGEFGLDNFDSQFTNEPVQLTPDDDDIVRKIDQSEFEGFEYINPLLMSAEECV
The following applies: read-out: percentage of control activity (POC), PKCι. The protocol:
(§1) Kinase selectivity was evaluated at Eurofins Pharma Discovery Services using a selection of 125 representative kinases tested at a concentration of 10 μM in duplicate (S3 Table). IC50 values for selected activities were further characterized at 9 duplicate concentrations. DNA-PK activity was determined at the SelectScreen® Biochemical kinase Profiling Service of Thermo Fisher Scientific.

Experiment [2] concerns the target T2, GSK3α (Homo sapiens, UniProt P49840).
T2 construct: purchased Eurofins Pharma Discovery Services (KinaseProfiler; Cerep BioPrint panel)
The settings on record: read-out: percentage of control activity (POC), GSK3α. How it is done: as §1

Experiment [3] deals with T3, eEF-2K (Homo sapiens, UniProt O00418).
T3 construct: purchased Eurofins Pharma Discovery Services (KinaseProfiler; Cerep BioPrint panel)
The settings on record: read-out: percentage of control activity (POC), eEF-2K. How it is done: as §1

Experiment [4] concerns the target T4, Abl (Homo sapiens, UniProt P00519).
T4 construct: purchased Eurofins Pharma Discovery Services (KinaseProfiler; Cerep BioPrint panel)
The settings on record: read-out: percentage of control activity (POC), Abl. How it is done:
as §1

For experiment [5], the target named is T5, PKCθ (Homo sapiens, UniProt Q04759).
T5 construct: purchased Eurofins Pharma Discovery Services (KinaseProfiler; Cerep BioPrint panel)
The following applies: read-out: percentage of control activity (POC), PKCθ. How it is done:
as §1

The target in experiment [6] is T6, Rsk1 (Homo sapiens, UniProt Q15418).
T6 construct: purchased Eurofins Pharma Discovery Services (KinaseProfiler; Cerep BioPrint panel)
The following applies: read-out: percentage of control activity (POC), Rsk1. How it is done:
as §1

Experiment [7] deals with T7, TrkB (Homo sapiens, UniProt Q16620).
T7 construct: purchased Eurofins Pharma Discovery Services (KinaseProfiler; Cerep BioPrint panel)
The settings on record: for remaining activity at 10 µM: read-out: percentage of control activity (POC), TrkB. The protocol:
as §1

Experiment [8] concerns the target T8, Rsk4 (Homo sapiens, UniProt Q9UK32).
T8 construct: purchased Eurofins Pharma Discovery Services (KinaseProfiler; Cerep BioPrint panel)
The following applies: read-out: percentage of control activity (POC), Rsk4. How it is done:
as §1

Experiment [9] deals with T9, CDK9/cyclin T1 (Homo sapiens, UniProt P50750).
T9 construct: purchased Eurofins Pharma Discovery Services (KinaseProfiler; Cerep BioPrint panel)
The following applies: read-out: percentage of control activity (POC), CDK9/cyclin T1. The protocol: as §1

Experiment [10] deals with T10, Mnk2 (Homo sapiens, UniProt Q9HBH9).
T10 construct: purchased Eurofins Pharma Discovery Services (KinaseProfiler; Cerep BioPrint panel)
The following applies: read-out: percentage of control activity (POC), Mnk2. How it is done: as §1

The target of experiment [11] is T11, ASK1 (Homo sapiens, UniProt Q99683).
T11 construct: purchased Eurofins Pharma Discovery Services (KinaseProfiler; Cerep BioPrint panel)
T11 sequence (Q99683 1-1374): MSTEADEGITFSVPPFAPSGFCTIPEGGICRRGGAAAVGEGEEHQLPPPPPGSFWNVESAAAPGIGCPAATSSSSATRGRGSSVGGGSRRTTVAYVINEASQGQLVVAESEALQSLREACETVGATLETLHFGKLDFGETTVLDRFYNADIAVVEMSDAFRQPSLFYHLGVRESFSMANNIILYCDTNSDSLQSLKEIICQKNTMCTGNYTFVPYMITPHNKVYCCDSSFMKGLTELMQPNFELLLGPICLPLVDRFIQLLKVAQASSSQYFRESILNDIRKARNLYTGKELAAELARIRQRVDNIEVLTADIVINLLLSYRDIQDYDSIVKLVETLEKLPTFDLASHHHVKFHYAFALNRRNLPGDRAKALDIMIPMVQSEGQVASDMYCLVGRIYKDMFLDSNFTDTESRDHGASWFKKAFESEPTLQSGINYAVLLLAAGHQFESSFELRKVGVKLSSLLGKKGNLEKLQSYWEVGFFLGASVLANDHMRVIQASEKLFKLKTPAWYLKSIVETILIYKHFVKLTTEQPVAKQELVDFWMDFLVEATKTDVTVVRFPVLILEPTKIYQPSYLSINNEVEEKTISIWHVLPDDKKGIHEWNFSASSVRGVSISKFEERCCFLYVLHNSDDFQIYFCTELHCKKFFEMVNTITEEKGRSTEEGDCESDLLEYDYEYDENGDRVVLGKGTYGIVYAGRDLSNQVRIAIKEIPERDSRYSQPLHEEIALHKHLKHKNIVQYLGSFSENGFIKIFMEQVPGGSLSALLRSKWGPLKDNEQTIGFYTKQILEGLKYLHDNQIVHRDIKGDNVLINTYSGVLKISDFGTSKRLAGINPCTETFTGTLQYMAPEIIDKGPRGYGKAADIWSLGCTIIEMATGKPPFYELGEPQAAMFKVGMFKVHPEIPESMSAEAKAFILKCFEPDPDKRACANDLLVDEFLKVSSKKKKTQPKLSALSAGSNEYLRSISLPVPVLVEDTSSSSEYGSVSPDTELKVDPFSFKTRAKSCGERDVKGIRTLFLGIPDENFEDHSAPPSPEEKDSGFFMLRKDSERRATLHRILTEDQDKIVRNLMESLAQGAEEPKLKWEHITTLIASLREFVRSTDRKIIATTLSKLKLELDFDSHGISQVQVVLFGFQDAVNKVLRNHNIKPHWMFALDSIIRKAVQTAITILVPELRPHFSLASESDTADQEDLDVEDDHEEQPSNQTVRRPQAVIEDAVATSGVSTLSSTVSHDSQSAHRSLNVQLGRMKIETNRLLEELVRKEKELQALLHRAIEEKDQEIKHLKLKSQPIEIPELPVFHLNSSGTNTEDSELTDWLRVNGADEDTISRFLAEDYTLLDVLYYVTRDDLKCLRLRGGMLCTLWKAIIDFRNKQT
The settings on record: read-out: percentage of control activity (POC), ASK1. The protocol:
as §1

Each structure is given as a SMILES string.

T9 sequence (P50750 whole entry): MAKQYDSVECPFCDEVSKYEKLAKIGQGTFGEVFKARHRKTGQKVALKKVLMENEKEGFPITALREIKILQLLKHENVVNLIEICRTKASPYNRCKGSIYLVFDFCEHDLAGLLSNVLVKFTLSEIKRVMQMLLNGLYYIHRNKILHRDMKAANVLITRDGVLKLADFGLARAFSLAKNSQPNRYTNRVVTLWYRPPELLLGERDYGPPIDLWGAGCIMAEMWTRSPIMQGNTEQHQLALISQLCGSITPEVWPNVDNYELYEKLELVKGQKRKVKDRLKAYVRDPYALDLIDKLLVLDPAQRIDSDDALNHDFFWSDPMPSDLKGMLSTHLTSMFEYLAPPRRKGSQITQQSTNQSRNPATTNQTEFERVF
T9 sequence (O60563 whole entry partner): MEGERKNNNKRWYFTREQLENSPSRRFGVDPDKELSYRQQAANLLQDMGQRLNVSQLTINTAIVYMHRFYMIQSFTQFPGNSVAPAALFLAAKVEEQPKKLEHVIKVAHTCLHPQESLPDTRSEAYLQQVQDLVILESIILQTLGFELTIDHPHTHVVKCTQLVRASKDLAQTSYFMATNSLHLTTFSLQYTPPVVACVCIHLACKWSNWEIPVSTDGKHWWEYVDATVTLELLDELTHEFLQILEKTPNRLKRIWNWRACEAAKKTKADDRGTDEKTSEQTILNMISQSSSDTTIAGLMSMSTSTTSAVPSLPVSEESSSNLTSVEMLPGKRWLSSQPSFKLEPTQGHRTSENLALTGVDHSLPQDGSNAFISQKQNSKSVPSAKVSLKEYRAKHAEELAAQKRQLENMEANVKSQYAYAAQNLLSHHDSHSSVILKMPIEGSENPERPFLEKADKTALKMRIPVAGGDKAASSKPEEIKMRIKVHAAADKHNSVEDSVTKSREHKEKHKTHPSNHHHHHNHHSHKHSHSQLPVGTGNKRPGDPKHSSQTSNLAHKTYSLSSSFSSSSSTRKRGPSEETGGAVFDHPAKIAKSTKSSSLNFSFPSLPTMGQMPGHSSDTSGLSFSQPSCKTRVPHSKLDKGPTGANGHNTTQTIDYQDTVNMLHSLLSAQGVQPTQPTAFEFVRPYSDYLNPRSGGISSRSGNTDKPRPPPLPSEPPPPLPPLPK
T4 sequence (P00519 whole entry): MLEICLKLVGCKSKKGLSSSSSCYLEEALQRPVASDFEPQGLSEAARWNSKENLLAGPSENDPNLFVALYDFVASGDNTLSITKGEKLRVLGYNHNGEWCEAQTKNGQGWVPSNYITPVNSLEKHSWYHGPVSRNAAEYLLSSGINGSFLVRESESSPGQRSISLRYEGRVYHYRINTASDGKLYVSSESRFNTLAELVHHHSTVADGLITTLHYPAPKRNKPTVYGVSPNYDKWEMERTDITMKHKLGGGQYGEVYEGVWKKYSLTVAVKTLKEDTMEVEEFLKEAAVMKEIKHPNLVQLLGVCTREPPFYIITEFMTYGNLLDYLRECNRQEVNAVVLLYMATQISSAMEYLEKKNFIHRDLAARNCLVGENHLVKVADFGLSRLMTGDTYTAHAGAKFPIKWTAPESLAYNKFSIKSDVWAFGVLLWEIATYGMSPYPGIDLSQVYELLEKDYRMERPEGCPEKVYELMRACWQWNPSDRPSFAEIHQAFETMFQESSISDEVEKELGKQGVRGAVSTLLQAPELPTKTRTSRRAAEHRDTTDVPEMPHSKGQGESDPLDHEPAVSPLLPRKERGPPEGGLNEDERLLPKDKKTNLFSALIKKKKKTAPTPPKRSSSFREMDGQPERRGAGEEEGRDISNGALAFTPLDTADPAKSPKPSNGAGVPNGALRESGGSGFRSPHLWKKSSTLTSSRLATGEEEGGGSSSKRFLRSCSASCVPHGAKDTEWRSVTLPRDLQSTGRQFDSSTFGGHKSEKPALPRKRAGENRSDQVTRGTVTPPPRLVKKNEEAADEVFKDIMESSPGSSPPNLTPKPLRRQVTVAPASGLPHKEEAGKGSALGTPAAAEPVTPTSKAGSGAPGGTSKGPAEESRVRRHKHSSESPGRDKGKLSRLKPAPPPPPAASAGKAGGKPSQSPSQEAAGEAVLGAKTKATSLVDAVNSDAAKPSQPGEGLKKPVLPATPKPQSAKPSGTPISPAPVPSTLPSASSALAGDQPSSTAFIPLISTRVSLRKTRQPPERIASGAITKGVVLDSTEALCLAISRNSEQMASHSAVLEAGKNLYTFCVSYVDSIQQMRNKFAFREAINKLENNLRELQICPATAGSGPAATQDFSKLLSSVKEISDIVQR
T8 sequence (Q9UK32 whole entry): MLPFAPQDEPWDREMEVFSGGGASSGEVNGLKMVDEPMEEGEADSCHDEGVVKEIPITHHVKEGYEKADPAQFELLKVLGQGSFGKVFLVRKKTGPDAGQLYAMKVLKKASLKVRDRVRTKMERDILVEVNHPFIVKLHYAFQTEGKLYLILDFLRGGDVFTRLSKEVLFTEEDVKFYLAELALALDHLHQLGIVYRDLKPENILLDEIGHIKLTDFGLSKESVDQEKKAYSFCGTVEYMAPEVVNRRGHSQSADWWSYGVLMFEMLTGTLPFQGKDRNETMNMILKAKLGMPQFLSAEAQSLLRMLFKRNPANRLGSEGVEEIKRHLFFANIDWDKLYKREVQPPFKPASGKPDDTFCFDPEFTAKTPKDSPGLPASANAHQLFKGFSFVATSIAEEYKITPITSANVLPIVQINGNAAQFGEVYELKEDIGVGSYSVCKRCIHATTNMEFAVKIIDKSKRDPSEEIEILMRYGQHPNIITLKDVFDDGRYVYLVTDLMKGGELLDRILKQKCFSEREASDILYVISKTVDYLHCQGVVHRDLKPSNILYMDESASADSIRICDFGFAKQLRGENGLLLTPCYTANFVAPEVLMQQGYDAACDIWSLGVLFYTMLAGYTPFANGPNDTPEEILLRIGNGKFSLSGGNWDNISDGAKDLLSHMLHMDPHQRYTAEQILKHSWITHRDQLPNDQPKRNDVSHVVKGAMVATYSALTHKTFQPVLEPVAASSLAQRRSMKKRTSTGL
T10 sequence (Q9HBH9 whole entry): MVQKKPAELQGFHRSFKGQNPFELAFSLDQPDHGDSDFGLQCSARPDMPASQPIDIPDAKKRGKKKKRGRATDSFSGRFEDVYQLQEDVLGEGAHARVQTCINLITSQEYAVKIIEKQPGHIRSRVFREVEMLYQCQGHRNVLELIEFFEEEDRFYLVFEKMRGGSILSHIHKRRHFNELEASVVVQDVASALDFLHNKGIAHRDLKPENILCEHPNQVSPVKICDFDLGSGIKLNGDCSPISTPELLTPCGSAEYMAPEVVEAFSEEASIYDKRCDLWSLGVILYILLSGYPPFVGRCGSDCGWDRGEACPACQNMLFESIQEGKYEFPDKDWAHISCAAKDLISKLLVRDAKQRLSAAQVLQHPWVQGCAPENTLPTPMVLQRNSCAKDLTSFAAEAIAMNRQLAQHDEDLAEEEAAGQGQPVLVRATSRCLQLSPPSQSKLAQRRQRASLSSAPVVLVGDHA
T5 sequence (Q04759 whole entry): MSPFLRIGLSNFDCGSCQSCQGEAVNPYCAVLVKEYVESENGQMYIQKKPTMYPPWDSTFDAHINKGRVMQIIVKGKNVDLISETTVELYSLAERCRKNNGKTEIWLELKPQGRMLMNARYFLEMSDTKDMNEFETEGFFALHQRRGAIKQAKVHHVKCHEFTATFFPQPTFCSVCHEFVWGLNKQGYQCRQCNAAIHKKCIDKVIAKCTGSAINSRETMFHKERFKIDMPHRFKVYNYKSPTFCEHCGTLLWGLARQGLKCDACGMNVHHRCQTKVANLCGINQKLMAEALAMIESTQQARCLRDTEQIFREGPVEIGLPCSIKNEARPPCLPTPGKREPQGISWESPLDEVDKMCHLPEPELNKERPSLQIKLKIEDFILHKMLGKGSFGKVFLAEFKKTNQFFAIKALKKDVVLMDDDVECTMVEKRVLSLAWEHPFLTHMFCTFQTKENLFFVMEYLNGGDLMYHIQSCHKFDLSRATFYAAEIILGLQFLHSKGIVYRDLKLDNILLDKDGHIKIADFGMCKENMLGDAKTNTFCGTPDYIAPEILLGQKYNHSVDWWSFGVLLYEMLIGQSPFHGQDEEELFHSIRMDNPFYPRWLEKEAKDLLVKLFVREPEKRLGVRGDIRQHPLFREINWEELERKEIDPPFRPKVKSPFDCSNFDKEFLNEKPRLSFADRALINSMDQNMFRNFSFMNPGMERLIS
T6 sequence (Q15418 whole entry): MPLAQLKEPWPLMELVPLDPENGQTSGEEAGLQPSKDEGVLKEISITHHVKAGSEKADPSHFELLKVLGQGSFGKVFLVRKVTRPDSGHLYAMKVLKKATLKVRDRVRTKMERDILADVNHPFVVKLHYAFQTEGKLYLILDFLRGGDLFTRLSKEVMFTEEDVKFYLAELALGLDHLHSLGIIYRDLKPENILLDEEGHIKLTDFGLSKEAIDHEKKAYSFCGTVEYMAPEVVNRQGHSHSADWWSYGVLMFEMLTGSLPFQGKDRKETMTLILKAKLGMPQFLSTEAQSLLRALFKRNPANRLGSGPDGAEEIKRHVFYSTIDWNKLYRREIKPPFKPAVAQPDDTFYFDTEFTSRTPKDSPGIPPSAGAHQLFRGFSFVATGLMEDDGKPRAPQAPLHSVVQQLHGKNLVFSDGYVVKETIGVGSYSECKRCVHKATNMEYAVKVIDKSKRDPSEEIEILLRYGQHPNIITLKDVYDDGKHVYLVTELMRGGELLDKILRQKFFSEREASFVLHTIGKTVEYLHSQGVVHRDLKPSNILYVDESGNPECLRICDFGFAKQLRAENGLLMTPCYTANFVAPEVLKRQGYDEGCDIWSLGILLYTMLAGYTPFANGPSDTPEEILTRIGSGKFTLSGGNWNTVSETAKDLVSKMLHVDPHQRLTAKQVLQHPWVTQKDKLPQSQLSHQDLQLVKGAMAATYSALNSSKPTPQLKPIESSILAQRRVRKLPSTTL

Take `CC(C)(C)N1CCC(c2cc(-c3ccc(F)cc3Cl)c3cc[n+]([O-])c(-c4c(Cl)cccc4Cl)c3n2)CC1` [compound 2]: the remaining activity at 10 µM in experiment [1] came out at 103%; in [2], 107%; in experiment [3], 115%; in experiment [4] it was 104%; in experiment [5], 91%; in experiment [6], 104%. Also, the remaining activity at 10 µM in experiment [7] turned out to be 25%; in [8] it was 102%; in experiment [9], 96%; in experiment [10], 100%; in experiment [11] it was 100%. This compound showed an inhibition at 10 µM in experiment [7] of 75%.
With `Cc1ccc(C(=O)NCC2CC2)cc1-c1ccc2c(c1)NC(=O)C21CCCC1` [compound 3], the remaining activity at 10 µM in experiment [1] turned out to be 100%; in experiment [2], 95%; in experiment [3], 111%; in experiment [4], 96%; in [5], 97%; in experiment [6], 100%. For the same compound, the remaining activity at 10 µM in [7] amounted to 96%; in experiment [8], 103%; in experiment [9] it was 85%; in experiment [10] it was 91%; in [11], 97%.
Take `Cn1cc(-c2cccc(-c3nc(C(=O)NC4C5CC6CC4CC(O)(C6)C5)c(N)nc3N)c2)cn1` (centres unmarked) [compound 4]: the remaining activity at 10 µM in experiment [1] is 87%; in experiment [2] it was 76%; in experiment [3], 115%; in experiment [4], 66%; in experiment [5], 84%; in experiment [6], 87%. The remaining activity at 10 µM in experiment [7] came to 57%; in experiment [8] it was 110%; in [9], 95%; in experiment [10] it was 86%; in experiment [11], 92%.
As to `CS(=O)(=O)N1CCN(c2ccc(Nc3ncc(C(N)=O)c(NC4CC4)n3)cc2)CC1` [compound 5], the remaining activity at 10 µM worked out at 83% in experiment [1]; 40% in experiment [2]; 97% in [3]; 2% in experiment [4]; 26% in experiment [5]; 1% in experiment [6]. Further, the remaining activity at 10 µM in [7] stood at 3%; in [8], 2%; in [9], 56%; in [10], 84%; in experiment [11] it was 0%.
For the compound `COc1c(NC(=O)c2ccc(C)c(-c3nnc4c(NCC(C)(C)C)nccn34)c2)cc(C(C)(C)C)cc1NS(C)(=O)=O` [compound 7, reference compound], the remaining activity at 10 µM in experiment [1] was 103%; in [2], 103%; in experiment [3], 128%; in experiment [4], 50%; in experiment [5], 98%; in experiment [6], 132%. The remaining activity at 10 µM in [7] stood at 84%; in experiment [8], 131%; in experiment [9], 97%; in experiment [10], 98%; in experiment [11], 87%.
